# Laboratory results published in patent US9745255B2, “Meta-substituted biphenyl peripherally restricted FAAH inhibitors” (The Regents of the University of California, priority 2011, dated 2017).
# Like-named read-outs stand apart in the source and are kept apart here.
# Tests used:
# FAAH [1] = molecular target: T1, FAAH (Rattus norvegicus, UniProt P97612); assay: In vitro FAAH assay (IC50, Tables 1 and 2); assay type: biochemical
# T1 construct: Wistar rats were typically used for the FAAH studies; from tissue; host or cells: Wistar rat
# T1 sequence (P97612 1-579): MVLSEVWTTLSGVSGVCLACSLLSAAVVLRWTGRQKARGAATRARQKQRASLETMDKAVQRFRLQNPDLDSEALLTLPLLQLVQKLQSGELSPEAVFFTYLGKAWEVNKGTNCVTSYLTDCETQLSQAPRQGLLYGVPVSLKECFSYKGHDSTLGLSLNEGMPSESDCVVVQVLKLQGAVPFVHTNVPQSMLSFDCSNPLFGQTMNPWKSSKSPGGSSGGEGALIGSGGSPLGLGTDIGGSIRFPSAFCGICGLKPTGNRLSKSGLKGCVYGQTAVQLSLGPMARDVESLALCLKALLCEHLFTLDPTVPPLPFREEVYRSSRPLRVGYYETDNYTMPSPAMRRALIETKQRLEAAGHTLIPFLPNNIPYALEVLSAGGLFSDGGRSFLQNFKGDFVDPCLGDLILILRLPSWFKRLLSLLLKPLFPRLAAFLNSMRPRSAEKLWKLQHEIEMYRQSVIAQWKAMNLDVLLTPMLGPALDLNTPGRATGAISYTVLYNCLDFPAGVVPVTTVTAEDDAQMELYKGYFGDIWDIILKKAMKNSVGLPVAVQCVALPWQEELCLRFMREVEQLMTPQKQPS
# Procedure: Male Swiss Webster and CD1 mice (Charles River, 20-30 g) were used. Mice were group-housed in standard cages at room temperature on a 12:12 h light:dark cycle with unlimited access to water and standard chow pellets. Wistar rats were typically used for the FAAH studies. All experiments met the National Institutes of Health guidelines for the care and use of laboratory animals, were approved by the Institutional Animal Care and Use Committee of the University of California, Irvine, and the University of Georgia, Athens, and were in compliance with the European Community Council Directive 86 (609) EEC and the experimental protocol was carried out in compliance with Italian regulations (DL 116/92).
# (§1) Comparison of compounds according to the invention with other peripherally restricted FAAH inhibitors for their ability to inhibit FAAH in the periphery. […] In particular, (1) IC50 values were generated in vitro using a FAAH assay. […] Mice received a 1 mg/kg dose of each compound by the intraperitoneal route, and were killed 2 h after administration. Tissues were collected and FAAH activity was measured ex vivo in tissue extracts (membrane fraction) using the FAAH assay.
# FAAH [2] = molecular target: T2, FAAH (Mus musculus, UniProt O08914); assay: Ex vivo FAAH activity in liver and brain tissue extracts after i.p. administration to mice; parameters: from tissue; host or cells: mouse liver and brain, membrane fraction of tissue extracts; conditions: for inhibition at 1 mg/kg: mouse, ip, Table 1, mice, 1 mg/kg intraperitoneal, killed 2 h after administration, ex vivo
# T2 sequence (O08914 1-579): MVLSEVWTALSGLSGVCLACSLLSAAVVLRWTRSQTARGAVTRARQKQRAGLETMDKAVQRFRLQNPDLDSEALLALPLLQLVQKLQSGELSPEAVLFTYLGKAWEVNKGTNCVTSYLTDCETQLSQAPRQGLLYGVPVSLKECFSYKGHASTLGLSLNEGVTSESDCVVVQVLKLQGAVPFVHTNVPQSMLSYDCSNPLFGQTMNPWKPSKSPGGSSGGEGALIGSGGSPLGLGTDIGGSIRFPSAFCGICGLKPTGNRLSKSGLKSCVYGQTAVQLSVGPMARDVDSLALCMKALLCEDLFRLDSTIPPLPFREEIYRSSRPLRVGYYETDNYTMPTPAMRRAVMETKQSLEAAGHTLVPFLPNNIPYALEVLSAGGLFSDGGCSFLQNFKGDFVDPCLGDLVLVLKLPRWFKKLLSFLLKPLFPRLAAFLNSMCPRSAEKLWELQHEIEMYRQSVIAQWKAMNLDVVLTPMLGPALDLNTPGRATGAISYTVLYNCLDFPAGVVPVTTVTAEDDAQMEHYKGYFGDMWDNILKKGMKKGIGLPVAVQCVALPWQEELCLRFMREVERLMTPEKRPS
# Procedure: as §1
# [3] = test system: carrageenan-induced hyperalgesia in male CD1 mice; assay: Carrageenan-induced thermal hyperalgesia; assay type: in vivo, mouse; conditions: oral administration, p<0.001 vs. vehicle (FIG. 3)
# Procedure: (§2) Peripheral inflammation was induced by intraplantar (i.pl.) injection of the polysaccharide λ-carrageenan (i.pl. 1% weight vol^−1 in sterile water, 20 μL) into the left hind paw of male CD1 mice.
# (§3) Nocifensive responses were measured elicited by intraplantar injection of carrageenan in male CD1 mice (LoVerme, J., La Rana, G., Russo, R., Calignano, A., & Piomelli, D., The search for the palmitoylethanolamide receptor. Life Sci 77 (14), 1685-1698 (2005)).
# (§4) Mechanical hyperalgesia was determined by measuring the latency in seconds to withdraw the paw away from a constant mechanical pressure exerted onto the dorsal surface. […] Withdrawal threshold was measured on the inflamed ipsilateral paw at different time points after oral drug administration. […] Thermal hyperalgesia was assessed as described (Hargreaves, K., Dubner, R., Brown, F., Flores, C., & Joris, J., A new and sensitive method for measuring thermal nociception in cutaneous hyperalgesia. Pain 32 (1), 77-88 (1988)), measuring the latency to withdraw the hindpaw from a focused beam of radiant heat (thermal intensity: infrared 3.0) applied to the plantar surface using a plantar test apparatus (Ugo Basile, Italy). […] Withdrawal latency was measured on the inflamed ipsilateral paw at different time points after oral drug administration. […]
# [4] = test system: carrageenan-induced edema in male CD1 mice; assay: Carrageenan-induced paw edema; assay type: in vivo, mouse; conditions: oral administration, 10 and 30 mg/kg, vs. vehicle (FIG. 1)
# Procedure: as §2
# Paw edema was induced in mice by injection into the right hind paws of 50 μL, of sterile saline containing 1% λ-carrageenan. Paw volumes were measured using a plethysmometer (Ugo Basile, Milan, Italy). […] The increase in paw volume (mL) was evaluated as the difference between the paw volume measured at each time point and the basal paw volume measured immediately before carrageenan injection.
# [5] = test system: carrageenan-induced hyperalgesia in male CD1 mice; assay: Carrageenan-induced mechanical hyperalgesia; assay type: in vivo, mouse; conditions: oral administration, p<0.001 vs. vehicle (FIG. 2)
# Procedure: as §2, §3, §4
# [6] = Brain entry after systemic administration in mice; assay type: in vivo, mouse; conditions: inferred from Table 3
# Source text: The activity of compounds of Formula I as peripherally restricted FAAH inhibitors was found based in part on the polarity of the p-hydroxyphenyl moiety.
# [7] = Transport system mediated extrusion from brain; conditions: in vivo
# Source text: (§5) Peripheral cannabinoid receptors exert a powerful inhibitory control over pain initiation, but the endogenous cannabinoid signal that normally engages this intrinsic analgesic mechanism is unknown. […] CB1 receptor blockade prevents these effects. […] Accordingly, relatively brain-impermeant FAAH inhibitors, which strengthen this gating mechanism, offer a new approach to pain therapy (see, U.S. Provisional Patent Application Ser. No. 61/368,500, filed on Jul. 28, 2010, which is incorporated herein by reference in its entirety for all purposes, and specifically with respect to methods of assaying FAAH inhibitors for their biological and pharmaceutical properties, and the pharmacological properties of peripherally restricted FAAH inhibitors in general).
# FAAH [8] = molecular target: T2, FAAH; assay: FAAH activity and anandamide levels outside the CNS; parameters: suppressed FAAH activity and increased anandamide levels outside the central nervous system (CNS); from tissue; host or cells: peripheral tissues of the dosed animal, not specified; conditions: in vivo
# Source text: Peripheral cannabinoid receptors exert a powerful inhibitory control over pain initiation, but the endogenous cannabinoid signal that normally engages this intrinsic analgesic mechanism is unknown.
# [9] = test system: rodent models of inflammation and peripheral nerve injury; assay: Rodent models of inflammation and peripheral nerve injury (persistent pain); assay type: in vivo; conditions: prevented by CB1 receptor blockade
# Source text: as §5
# [10] = brain membrane fraction, read-out: FAAH inhibition in brain
# [11] = liver membrane fraction, read-out: FAAH inhibition in liver
structure (smiles),measurement,setting,value
NC(=O)c1cccc(-c2cc(OC(=O)NC3CCCCC3)ccc2C(=O)O)c1 [ARN0715],IC50,FAAH [1]; Table 2 (Example 5),2100 nM
same,FAAH inhibition in brain,"FAAH [2]; Table 2 (Example 5), brain",−2.1 ± 0.5%
same,FAAH inhibition in liver,"FAAH [2]; Table 2 (Example 5), liver",86.3 ± 1.3%
"NC(=O)c1cccc(-c2cc(O)cc(OC(=O)NC3CCCCC3)c2)c1 [Compound 1, [3-(3-carbamoylphenyl)-5-hydroxy-phenyl]N-cyclohexylcarbamate]","withdrawal threshold on inflamed ipsilateral paw, thermal hyperalgesia test",[3],increased
same,inhibition at 1 mg/kg,FAAH [2]; [10],-4.2 ± 2.5%
same,inhibition at 1 mg/kg,FAAH [2]; [11],89.5 ± 1.1%
same,difference between paw volume at each time point and basal paw volume (carrageenan-induced edema),[4],reduced
same,"withdrawal threshold on inflamed ipsilateral paw, mechanical hyperalgesia test",[5],increased
COc1ccc(OC(=O)NC2CCCCC2)cc1-c1cccc(C(N)=O)c1 [Compound 1c],entry into the brain after systemic administration,[6],enter the brain
Cc1ccc(OC(=O)NC2CCCCC2)cc1-c1cccc(C(N)=O)c1 [Compound 1d],entry into the brain after systemic administration,[6],enter the brain
NC(=O)c1cccc(-c2cc(OC(=O)NC3CCCCC3)ccc2F)c1 [Compound 1e],entry into the brain after systemic administration,[6],enter the brain
NC(=O)c1cccc(-c2cc(OC(=O)NC3CCCCC3)ccc2N)c1 [Compound 1f],entry into the brain after systemic administration,[6],largely excluded
"CNC(=O)c1cccc(-c2cc(O)cc(OC(=O)NC3CCCCC3)c2)c1 [Compound 2, [3-hydroxy-5-[3-(methylcarbamoyl)phenyl]phenyl]N-cyclohexylcarbamate]",IC50,"FAAH [1]; Table 1, in vitro FAAH assay",0.3 nM
same,inhibition at 1 mg/kg,FAAH [2]; [10],-1.7 ± 0.2%
same,inhibition at 1 mg/kg,FAAH [2]; [11],69.1 ± 3.5%
NC(=O)c1cccc(-c2cc(OC(=O)NC3CCCCC3)ccc2O)c1 [URB937],susceptibility to transport system mediated extrusion from brain,[7],surprisingly susceptible
same,FAAH activity outside the central nervous system (CNS),FAAH [8],suppressed
same,anandamide levels outside the central nervous system (CNS),FAAH [8],increased
same,noxious stimulus-evoked neuronal activation in spinal cord regions implicated in nociceptive processing,[9],suppresses
same,behavioral responses indicative of persistent pain,[9]; rodent models of inflammation and peripheral nerve injury,attenuated
